Where “and” joins values, the source holds several entries; their conditions need not be identical. Equal values may be shown once. Toxic doses and inconclusive results are not listed. Rule as the data show it: active = T/C of 150% or more; inactive = T/C below 125%.
Tested on: L1210 leukemia ip in BDF1 mice, survival T/C
Test: NCI In Vivo Anticancer Drug Screen. Data for tumor model L1210 Leukemia (intraperitoneal) in B6D2F1 (BDF1) mice
Conditions: endpoint: mean survival time, higher = longer survival
Summary of the method: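 Transplanted-tumor mice were given test agent; controls received vehicle only. Survival readings from the two groups were divided (treated over control).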

[1] = dose: 25.0 mg/kg/injection, schedule: Q01DX009 (ip), vehicle: saline with Tween-80
[2] = dose: 50.0 mg/kg/injection, schedule: Q01DX009 (ip), vehicle: saline with Tween-80
[3] = dose: 100.0 mg/kg/injection, schedule: Q01DX009 (ip), vehicle: saline with Tween-80
[4] = dose: 100.0 mg/kg/injection, schedule: Q04DX003 (ip), vehicle: saline with Tween-80
[5] = dose: 100.0 mg/kg/injection, schedule: Q01DX009 (ip), vehicle: Klucel (hydroxypropylcellulose) (HPC)
[6] = dose: 200.0 mg/kg/injection, schedule: Q01DX009 (ip), vehicle: Klucel (hydroxypropylcellulose) (HPC)
[7] = dose: 400.0 mg/kg/injection, schedule: Q01DX009 (ip), vehicle: Klucel (hydroxypropylcellulose) (HPC)
[8] = dose: 100.0 mg/kg/injection, schedule: Q04DX002 (ip), vehicle: Klucel (hydroxypropylcellulose) (HPC)
[9] = dose: 200.0 mg/kg/injection, schedule: Q04DX002 (ip), vehicle: Klucel (hydroxypropylcellulose) (HPC)
[10] = dose: 400.0 mg/kg/injection, schedule: Q04DX002 (ip), vehicle: Klucel (hydroxypropylcellulose) (HPC)
[11] = dose: 100.0 mg/kg/injection, schedule: Q04DX003 (ip), vehicle: saline
[12] = dose: 200.0 mg/kg/injection, schedule: Q04DX003 (ip), vehicle: saline
[13] = dose: 400.0 mg/kg/injection, schedule: Q04DX003 (ip), vehicle: saline
[14] = dose: 200.0 mg/kg/injection, schedule: Q04DX003 (ip), vehicle: saline with Tween-80
[15] = dose: 100.0 mg/kg/injection, schedule: Q04DX003 (ip), vehicle: Klucel (hydroxypropylcellulose) (HPC)
[16] = dose: 200.0 mg/kg/injection, schedule: Q04DX003 (ip), vehicle: Klucel (hydroxypropylcellulose) (HPC)
[17] = dose: 400.0 mg/kg/injection, schedule: Q04DX003 (ip), vehicle: Klucel (hydroxypropylcellulose) (HPC)

Measured: T/C

COc1ccc(C(c2ccc(Cl)cc2)N2CCNCC2)cc1 (centres undefined)
inactive: [1] 98 % of control | [2] 96 % of control | [3] 96 % of control | [4] 102 % of control

NNC(=O)OC12CC3CC(CC(C3)C1)C2
inactive: [1] 90 % of control | [2] 88 % of control | [3] 98 % of control | [4] 94 % of control

NC(Cc1nccn1Cc1ccccc1)C(=O)O (centres undefined)
inactive: dose: 75.0 mg/kg/injection, schedule: Q04DX002 (ip), vehicle: saline with Tween-80 104 % of control | dose: 150.0 mg/kg/injection, schedule: Q04DX002 (ip), vehicle: saline with Tween-80 112 % of control | dose: 300.0 mg/kg/injection, schedule: Q04DX002 (ip), vehicle: saline with Tween-80 119 % of control

COc1ccc(OC(=O)Nc2cccc(Cl)c2)cc1
inactive: [5] 94 % of control | [6] 100 % of control | [7] 100 % of control

Cc1cccc(C)c1OC(=O)Nc1ccc(Cl)cc1
inactive: [8] 96 % of control | [9] 110 % of control | [10] 96 % of control

O=C1C(Br)C(Br)C(=O)N1c1ccccc1F (centres undefined)
inactive: dose: 12.5 mg/kg/injection, schedule: Q01DX009 (ip), vehicle: other 96 % of control | dose: 25.0 mg/kg/injection, schedule: Q01DX009 (ip), vehicle: other 92 % of control

O=C1Nc2ccccc2C2Cc3c([nH]c4ccccc34)CC12 (centres undefined)
inactive: dose: 50.0 mg/kg/injection, schedule: Q01DX001 (ip), vehicle: saline 115 % of control | dose: 100.0 mg/kg/injection, schedule: Q01DX001 (ip), vehicle: saline 104 % of control | dose: 200.0 mg/kg/injection, schedule: Q01DX001 (ip), vehicle: saline 104 % of control | dose: 400.0 mg/kg/injection, schedule: Q01DX001 (ip), vehicle: saline 89 % of control

CCOC(=O)NCCCCCCNC(=O)OCC
inactive: [2] 97 % of control | [3] 95 % of control | dose: 200.0 mg/kg/injection, schedule: Q01DX009 (ip), vehicle: saline with Tween-80 95 % of control

N/C(=N\N=C\c1ccc2c(c1)OCO2)N/N=C\c1ccc2c(c1)OCO2
inactive: dose: 15.0 mg/kg/injection, schedule: Q01DX Z (ip), vehicle: carboxymethylcellulose (CMC) 95 % of control | dose: 30.0 mg/kg/injection, schedule: Q01DX Z (ip), vehicle: carboxymethylcellulose (CMC) 101 % of control | dose: 60.0 mg/kg/injection, schedule: Q01DX Z (ip), vehicle: carboxymethylcellulose (CMC) 97 % of control | dose: 120.0 mg/kg/injection, schedule: Q01DX Z (ip), vehicle: carboxymethylcellulose (CMC) 94 % of control | dose: 120.0 mg/kg/injection, schedule: Q01DX Z (oral), vehicle: carboxymethylcellulose (CMC) 95 % of control | dose: 240.0 mg/kg/injection, schedule: Q01DX Z (oral), vehicle: carboxymethylcellulose (CMC) 103 % of control | dose: 480.0 mg/kg/injection, schedule: Q01DX Z (oral), vehicle: carboxymethylcellulose (CMC) 101 % of control | dose: 960.0 mg/kg/injection, schedule: Q01DX Z (oral), vehicle: carboxymethylcellulose (CMC) 97 % of control

CCCC[P+](CO)(CCCC)CCCC
inactive: dose: 30.0 mg/kg/injection, schedule: Q01DX001 (ip), vehicle: saline 102 % of control

O=C(CC1CCCCN1)CC1CCCCN1 (centres undefined)
inactive: [11] 92 % of control | [12] 101 % of control

O=C(CBr)CC(=O)Nc1ccccc1
inactive: [1] 97 % of control | [2] 91 % of control

Nc1ccc(NS(=O)(=O)CS(=O)(=O)Nc2ccc(N)cc2)cc1
inactive: dose: 10.0 mg/kg/injection, schedule: Q01DX001 (ip), vehicle: saline 96 % of control | dose: 20.0 mg/kg/injection, schedule: Q01DX001 (ip), vehicle: saline 101 % of control | dose: 40.0 mg/kg/injection, schedule: Q01DX001 (ip), vehicle: saline 101 % of control

CCOC(=O)CNC(=O)C(O)C(O)C(O)C(O)CO (centres undefined)
inactive: [11] 102 % of control | [12] 97 % of control | [13] 91 % of control

CC(C)=CCN(CC=C(C)C)CCC(C#N)(c1cccc2ccccc12)C(C)C (centres undefined)
inactive: dose: 25.0 mg/kg/injection, schedule: Q01DX009 (ip), vehicle: Klucel (hydroxypropylcellulose) (HPC) 101 % of control | [5] 93 % of control

Cc1ccc(N=C(N)N=C(N)N)cc1C
inactive: dose: 75.0 mg/kg/injection, schedule: Q01DX001 (ip), vehicle: carboxymethylcellulose (CMC) 97 % of control | dose: 150.0 mg/kg/injection, schedule: Q01DX001 (ip), vehicle: carboxymethylcellulose (CMC) 97 % of control | dose: 300.0 mg/kg/injection, schedule: Q01DX001 (ip), vehicle: carboxymethylcellulose (CMC) 91 % of control

O=C1NC(=O)c2ccccc21
inactive: dose: 25.0 mg/kg/injection, schedule: Q01DX009 (ip), vehicle: saline 94 % of control | dose: 50.0 mg/kg/injection, schedule: Q01DX009 (ip), vehicle: saline 99 % of control | dose: 100.0 mg/kg/injection, schedule: Q01DX009 (ip), vehicle: saline 94 % of control and 96 % of control | [11] 95 % of control | dose: 200.0 mg/kg/injection, schedule: Q01DX009 (ip), vehicle: saline 95 % of control and 108 % of control | [12] 98 % of control | dose: 400.0 mg/kg/injection, schedule: Q01DX009 (ip), vehicle: saline 95 % of control and 96 % of control | [13] 106 % of control

S=c1nc2[nH]c3ccccc3c2n[nH]1
inactive: [4] 94 % of control | [14] 89 % of control

O=C(CCl)Oc1ccccc1
inactive: [2] 94 % of control | [3] 87 % of control | [4] 101 % of control | [14] 96 % of control

CCN1C(/C=C/c2ccc(O)c3ncccc23)CCC2CC(C)CCC21 (centres undefined)
inactive: dose: 75.0 mg/kg/injection, schedule: Q01DX001 (ip), vehicle: saline 117 % of control | dose: 150.0 mg/kg/injection, schedule: Q01DX001 (ip), vehicle: saline 119 % of control | dose: 300.0 mg/kg/injection, schedule: Q01DX001 (ip), vehicle: saline 120 % of control

COc1c2c(c3c(c1O)c(=O)c1ccccc1n3C)OCO2
inactive: dose: 50.0 mg/kg/injection, schedule: Q01DX001 (ip), vehicle: carboxymethylcellulose (CMC) 104 % of control | dose: 100.0 mg/kg/injection, schedule: Q01DX001 (ip), vehicle: carboxymethylcellulose (CMC) 90 % of control | dose: 200.0 mg/kg/injection, schedule: Q01DX001 (ip), vehicle: carboxymethylcellulose (CMC) 90 % of control

COC(C)c1cnccc1/C(C)=C1/Nc2ccccc2C1=O (centres undefined)
inactive: dose: 50.0 mg/kg/injection, schedule: Q04DX003 (ip), vehicle: Klucel (hydroxypropylcellulose) (HPC) 95 % of control | dose: 100.0 mg/kg/injection, schedule: Q01DX001 (ip), vehicle: Klucel (hydroxypropylcellulose) (HPC) 107 % of control | [15] 100 % of control and 91 % of control | dose: 200.0 mg/kg/injection, schedule: Q01DX001 (ip), vehicle: Klucel (hydroxypropylcellulose) (HPC) 94 % of control | [16] 96 % of control | dose: 400.0 mg/kg/injection, schedule: Q01DX001 (ip), vehicle: Klucel (hydroxypropylcellulose) (HPC) 97 % of control | [17] 97 % of control

Cc1cccc(NC(=O)NCCCl)c1
inactive: dose: 100.0 mg/kg/injection, schedule: Q01DX001 (ip), vehicle: other 97 % of control | [5] 95 % of control | [8] 102 % of control | dose: 200.0 mg/kg/injection, schedule: Q01DX001 (ip), vehicle: other 105 % of control | [6] 92 % of control | [9] 113 % of control | dose: 400.0 mg/kg/injection, schedule: Q01DX001 (ip), vehicle: other 97 % of control | [7] 92 % of control | [10] 102 % of control

CCc1ccccc1NC(=O)Nc1ccccc1OC
inactive: [5] 92 % of control | [15] 93 % of control | [6] 94 % of control | [16] 93 % of control | [7] 100 % of control | [17] 90 % of control

COc1ccc(CCN(C)C(C)C2C3CC4CC(C3)CC2C4)cc1OC (centres undefined)
inactive: [11] 101 % of control | [12] 94 % of control

Cc1cccc(NC(=O)/C=N/O)c1C
inactive: [15] 98 % of control | [16] 98 % of control

OC1CCN(C2(c3ccccc3)CCCCC2)CC1
inactive: [8] 104 % of control | [9] 86 % of control

O=Cc1cc([N+](=O)[O-])cc(CCl)c1O
inactive: [5] 90 % of control
